Target: Recombinant Human Poly(ADP-Ribose) Polymerase (PARP), PARP-1 (Homo sapiens (Human), UniProt P09874)
Conditions: read-out: PARP-1 (Ki); Table 1; text calls the values EC50s
Procedure: Nicotinamide[2,5′,8-3H]adenine dinucleotide and strepavidin SPA beads were purchased from Amersham Biosiences. […] NAD^+, histone, aminobenzamide, 3-amino benzamide and Calf Thymus DNA (dcDNA) were purchased from Sigma. Stem loop oligonucleotide containing MCAT sequence was obtained from Qiagen. The oligos were dissolved to 1 mM in annealing buffer containing 10 mM Tris HCl pH 7.5, 1 mM EDTA, and 50 mM NaCl, incubated for 5 minutes at 95° C., and annealed at 45° C. for 45 minutes. […] Biotinylated histone H1 was prepared by treating the protein with Sulfo-NHS-LC-Biotin from Pierce. The biotinylation reaction was conducted by slowly and intermittently adding 3 equivalents of 10 mM Sulfo-NHS-LC-Biotin to 100 μM Histone H1 in phosphate-buffered saline, pH 7.5, at 4° C. with gentle vortexing over 1 minute followed by subsequent 4° C. incubation for 1 hour. Streptavidin coated (FlashPlate Plus) microplates were purchased from Perkin Elmer.
PARP1 assay was conducted in PARP assay buffer containing 50 mM Tris pH 8.0, 1 mM DTT, 4 mM MgCl2. […] Auto reactions utilizing SPA bead-based detection were carried out in 100 μL volumes in white 96 well plates.

Chain of Recombinant Human Poly(ADP-Ribose) Polymerase (PARP), PARP-1 (P09874 whole entry): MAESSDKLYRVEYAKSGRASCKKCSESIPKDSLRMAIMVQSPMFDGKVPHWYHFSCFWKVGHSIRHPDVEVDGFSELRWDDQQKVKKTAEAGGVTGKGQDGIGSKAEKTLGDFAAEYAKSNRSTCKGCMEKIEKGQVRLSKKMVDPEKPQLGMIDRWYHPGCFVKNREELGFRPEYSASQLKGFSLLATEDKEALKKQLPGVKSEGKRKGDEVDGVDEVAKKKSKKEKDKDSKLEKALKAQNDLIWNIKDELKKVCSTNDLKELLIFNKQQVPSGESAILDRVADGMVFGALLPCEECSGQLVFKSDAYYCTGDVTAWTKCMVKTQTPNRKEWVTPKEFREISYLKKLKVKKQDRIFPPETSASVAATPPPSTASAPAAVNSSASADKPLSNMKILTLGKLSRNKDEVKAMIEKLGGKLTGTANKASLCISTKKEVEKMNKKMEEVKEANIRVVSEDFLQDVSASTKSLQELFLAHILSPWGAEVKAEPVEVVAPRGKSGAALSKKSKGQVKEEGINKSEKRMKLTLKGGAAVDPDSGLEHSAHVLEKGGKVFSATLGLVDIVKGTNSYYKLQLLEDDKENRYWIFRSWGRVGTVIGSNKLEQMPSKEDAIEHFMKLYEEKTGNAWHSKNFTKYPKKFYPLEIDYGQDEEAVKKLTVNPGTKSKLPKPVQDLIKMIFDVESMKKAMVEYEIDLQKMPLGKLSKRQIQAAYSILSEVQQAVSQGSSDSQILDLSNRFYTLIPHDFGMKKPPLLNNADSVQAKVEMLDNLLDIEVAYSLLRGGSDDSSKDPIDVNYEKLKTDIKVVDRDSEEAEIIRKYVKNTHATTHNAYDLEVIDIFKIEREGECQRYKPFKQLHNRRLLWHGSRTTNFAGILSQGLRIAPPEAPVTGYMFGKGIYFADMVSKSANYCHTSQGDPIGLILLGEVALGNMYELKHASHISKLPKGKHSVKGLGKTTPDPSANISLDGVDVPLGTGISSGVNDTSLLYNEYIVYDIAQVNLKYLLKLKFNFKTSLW

SMILES	Ki
O=C1CCCN1c1cccc(CCc2n[nH]c(=O)c3c2CCCC3)c1 [Example 262, 4-(2-(3-(2-oxopyrrolidin-1-yl)phenyl)ethyl)-5,6,7,8-tetrahydrophthalazin-1(2H)-one]	304 nM
O=c1[nH]nc(Cc2ccc(F)c(Br)c2)c2ncccc12 [Example 415]	3200 nM
O=C(Nc1cccc(Cc2n[nH]c(=O)c3c2CCCC3)c1)c1cccs1 [Example 196, N-(3-((4-oxo-3,4,5,6,7,8-hexahydrophthalazin-1-yl)methyl)phenyl)thiophene-2-carboxamide]	286 nM
CN1CCCN(C(=O)c2cc(Cc3n[nH]c(=O)c4c3CCCC4)ccc2F)CC1 [Example 502, 4-{4-fluoro-3-[(4-methyl-1,4-diazepan-1-yl)carbonyl]benzyl}-5,6,7,8-tetrahydrophthalazin-1(2H)-one]	1.5 nM
NC(=O)C1(C(=O)Nc2cccc(Cc3n[nH]c(=O)c4c3CCCC4)c2)CC1 [Example 141]	77 nM
O=C(Nc1cc(Cc2n[nH]c(=O)c3c2CCCC3)ccc1F)NC1CCCC1 [Example 540, N-cyclopentyl-N′-{2-fluoro-5-[(4-oxo-3,4,5,6,7,8-hexahydrophthalazin-1-yl)methyl]phenyl}urea]	204 nM
O=C(c1ccc(-c2cc(CCc3n[nH]c(=O)c4c3CCCC4)ccc2F)cc1)N1CCOCC1 [Example 267, 4-(2-(6-fluoro-4′-(morpholin-4-ylcarbonyl)-1,1′-biphenyl-3-yl)ethyl)-5,6,7,8-tetrahydrophthalazin-1(2H)-one]	534 nM
CCN(CC)c1ccc(C(=O)Nc2cccc(Cc3n[nH]c(=O)c4c3CCCC4)c2)cc1 [Example 189, 4-(diethylamino)-N-(3-((4-oxo-3,4,5,6,7,8-hexahydrophthalazin-1-yl)methyl)phenyl)benzamide]	175 nM
CC(=O)CCCC(=O)Nc1cc(Cc2n[nH]c(=O)c3c2CCCC3)ccc1F [Example 455, N-(2-fluoro-5-((4-oxo-3,4,5,6,7,8-hexahydrophthalazin-1-yl)methyl)phenyl)-5-oxohexanamide]	1.3 nM
O=C(CCC(=O)c1cccs1)Nc1cccc(Cc2n[nH]c(=O)c3c2CCCC3)c1 [Example 166, 4-oxo-N-(3-((4-oxo-3,4,5,6,7,8-hexahydrophthalazin-1-yl)methyl)phenyl)-4-thien-2-ylbutanamide]	5 nM
O=C(NCCc1ccc(C(F)(F)F)cc1)c1cccc(Cc2n[nH]c(=O)c3c2CCCC3)c1 [Example 395, 3-((4-oxo-3,4,5,6,7,8-hexahydrophthalazin-1-yl)methyl)-N-(2-(4-(trifluoromethyl)phenyl)ethyl)benzamide]	38 nM
NC(=O)C1CCN(C(=O)c2cc(Cc3n[nH]c(=O)c4c3NCCC4)ccc2F)CC1 [Example 534, 1-{2-fluoro-5-[(5-oxo-1,2,3,4,5,6-hexahydropyrido[2,3-d]pyridazin-8-yl)methyl]benzoyl}piperidine-4-carboxamide]	2 nM
CC(=O)N1CCC(C(=O)Nc2cccc(Cc3n[nH]c(=O)c4c3CCCC4)c2)CC1 [Example 155, 1-acetyl-N-(3-((4-oxo-3,4,5,6,7,8-hexahydrophthalazin-1-yl)methyl)phenyl)piperidine-4-carboxamide]	126 nM
CCN(C(C)=O)C1CCN(C(=O)c2cc(Cc3n[nH]c(=O)c4c3CCCC4)ccc2F)C1 (stereo not shown) [Example 619, N-ethyl-N-(1-{2-fluoro-5-[(4-oxo-3,4,5,6,7,8-hexahydrophthalazin-1-yl)methyl]benzoyl}pyrrolidine-3-yl)acetamide]	4 nM
O=C(c1cccc(Cc2n[nH]c(=O)c3c2CCCC3)c1)N1CCN(c2ccccc2)CC1 [Example 440, 4-(3-((4-phenylpiperazin-1-yl)carbonyl)benzyl)-5,6,7,8-tetrahydrophthalazin-1(2H)-one]	3 nM
CN1CCCN(C(=O)c2cccc(Cc3n[nH]c(=O)c4c3CCCC4)c2)CC1 [Example 447, 4-(3-((4-methyl-1,4-diazepan-1-yl)carbonyl)benzyl)-5,6,7,8-tetrahydrophthalazin-1(2H)-one]	10 nM

More lines, in order of falling Ki, values ahead:

Ki	SMILES
2030 nM	O=c1[nH]nc(Cc2cccc(NS(=O)(=O)c3ccco3)c2)c2c1CCCC2 [Example 118, N-(3-((4-oxo-3,4,5,6,7,8-hexahydrophthalazin-1-yl)methyl)phenyl)furan-2-sulfonamide]
724 nM	O=C1CCCN1c1cc(Cc2n[nH]c(=O)c3c2CCCC3)cc[n+]1[O-] [Example 133, 4-((1-oxido-2-(2-oxopyrrolidin-1-yl)pyridin-4-yl)methyl)-5,6,7,8-tetrahydrophthalazin-1(2H)-one]
635 nM	CCCc1ccccc1NC(=O)c1cccc(Cc2n[nH]c(=O)c3c2CCCC3)c1 [Example 332, 3-((4-oxo-3,4,5,6,7,8-hexahydrophthalazin-1-yl)methyl)-N-(2-propylphenyl)benzamide]
390 nM	CN(C)S(=O)(=O)Nc1cccc(Cc2n[nH]c(=O)c3c2CCCC3)c1 [Example 97, N,N-dimethyl-N′-(3-((4-oxo-3,4,5,6,7,8-hexahydrophthalazin-1-yl)methyl)phenyl)sulfamide]
363 nM	CC(C)(C)c1ccc(NC(=O)c2cccc(Cc3n[nH]c(=O)c4c3CCCC4)c2)cc1 [Example 336, N-(4-tert-butylphenyl)-3-((4-oxo-3,4,5,6,7,8-hexahydrophthalazin-1-yl)methyl)benzamide]
131 nM	O=C(NCc1ccncc1)c1cccc(Cc2n[nH]c(=O)c3c2CCCC3)c1 [Example 312, 3-((4-oxo-3,4,5,6,7,8-hexahydrophthalazin-1-yl)methyl)-N-(pyridin-4-ylmethyl)benzamide]
59 nM	COc1ccc(NC(=O)c2cccc(Cc3n[nH]c(=O)c4c3CCCC4)c2)cc1O [Example 353, N-(3-hydroxy-4-methoxyphenyl)-3-((4-oxo-3,4,5,6,7,8-hexahydrophthalazin-1-yl)methyl)benzamide]
25 nM	CC(C)(C)OC(=O)N1CCN(C(=O)c2cc(Cc3n[nH]c(=O)c4c3NCCC4)ccc2F)[C@H](c2ccccc2)C1 [Example 614, tert-butyl (3R)-4-{2-fluoro-5-[(5-oxo-1,2,3,4,5,6-hexahydropyrido[2,3-d]pyridazin-8-yl)methyl]benzoyl}-3-phenylpiperazine-1-carboxylate]
23 nM	O=C(NCCCN1CCCC1)c1cccc(Cc2n[nH]c(=O)c3c2CCCC3)c1 [Example 315, 3-((4-oxo-3,4,5,6,7,8-hexahydrophthalazin-1-yl)methyl)-N-(3-pyrrolidin-1-ylpropyl)benzamide]
21 nM	CCN(Cc1ccccc1)C(=O)c1cccc(Cc2n[nH]c(=O)c3c2CCCC3)c1 [Example 420, N-benzyl-N-ethyl-3-((4-oxo-3,4,5,6,7,8-hexahydrophthalazin-1-yl)methyl)benzamide]
14 nM	O=C(NC1CCN(C(=O)c2ccncc2)CC1)c1cc(Cc2n[nH]c(=O)c3c2NCCC3)ccc1F [Example 738, 2-fluoro-N-(1-isonicotinoylpiperidin-4-yl)-5-[(5-oxo-1,2,3,4,5,6-hexahydropyrido[2,3-d]pyridazin-8-yl)methyl]benzamide]
11 nM	O=C(COCc1ccccc1)Nc1cccc(Cc2n[nH]c(=O)c3c2CCCC3)c1 [Example 142, 2-(benzyloxy)-N-(3-((4-oxo-3,4,5,6,7,8-hexahydrophthalazin-1-yl)methyl)phenyl)acetamide]
3 nM	O=C(c1cc(Cc2n[nH]c(=O)c3c2NCCC3)ccc1F)N1CCN(CCOc2ccccc2)CC1 [Example 561, 8-(4-fluoro-3-{[4-(2-phenoxyethyl)piperazin-1-yl]carbonyl}benzyl)-2,3,4,6-tetrahydropyrido[2,3-d]pyridazin-5(1H)-one]
2 nM	CCN(CC)C(=O)N1CCN(C(=O)c2cc(Cc3n[nH]c(=O)c4c3CCCC4)ccc2F)CC1 [Example 530, N,N-diethyl-4-{2-fluoro-5-[(4-oxo-3,4,5,6,7,8-hexahydrophthalazin-1-yl)methyl]benzoyl}piperazine-1-carboxamide]
1.5 nM	O=C(NC1CCN(C(=O)c2cc(Cc3n[nH]c(=O)c4c3NCCC4)ccc2F)CC1)c1cscn1 [Example 751, N-(1-{2-fluoro-5-[(5-oxo-1,2,3,4,5,6-hexahydropyrido[2,3-d]pyridazin-8-yl)methyl]benzoyl}piperidin-4-yl)-1,3-thiazole-4-carboxamide]
1.5 nM	CC1(C)SCN[C@@H]1C(=O)N1CCN(C(=O)c2cc(Cc3n[nH]c(=O)c4c3CCCC4)ccc2F)CC1 [Example 677, 4-{3-[(4-{[(4R)-5,5-dimethyl-1,3-thiazolidin-4-yl]carbonyl}piperazin-1-yl)carbonyl]-4-fluorobenzyl}-5,6,7,8-tetrahydrophthalazin-1(2H)-one]
1.4 nM	O=C(c1ccncc1)N1CCN(C(=O)c2cc(Cc3n[nH]c(=O)c4c3CCCC4)ccc2F)CC1 [Example 720, 4-{4-fluoro-3-[(4-isonicotinoylpiperazin-1-yl)carbonyl]benzyl}-5,6,7,8-tetrahydrophthalazin-1(2H)-one]
1.1 nM	COc1ccc(N2CCN(C(=O)c3cc(Cc4n[nH]c(=O)c5c4NCCC5)ccc3F)CC2)cc1 [Example 599, 8-(4-fluoro-3-{[4-(4-methoxyphenyl)piperazin-1-yl]carbonyl}benzyl)-2,3,4,6-tetrahydropyrido[2,3-d]pyridazin-5(1H)-one]
1.1 nM	O=C(c1cc[nH]n1)N1CCN(C(=O)c2cc(Cc3n[nH]c(=O)c4c3CCCC4)ccc2F)CC1 [Example 678, 4-(4-fluoro-3-{[4-(1H-pyrazol-3-ylcarbonyl)piperazin-1-yl]carbonyl}benzyl)-5,6,7,8-tetrahydrophthalazin-1(2H)-one]
1.1 nM	O=C(c1ccc2[nH]cnc2c1)N1CCN(C(=O)c2cc(Cc3n[nH]c(=O)c4c3CCCC4)ccc2F)CC1 [Example 680, 4-(3-{[4-(1H-benzimidazol-5-ylcarbonyl)piperazin-1-yl]carbonyl}-4-fluorobenzyl)-5,6,7,8-tetrahydrophthalazin-1(2H)-one]
0.6 nM	CCN(CCNC(=O)C1CC1)C(=O)c1cc(Cc2n[nH]c(=O)c3c2CCCC3)ccc1F [Example 761, N-{2-[(cyclopropylcarbonyl)amino]ethyl}-N-ethyl-2-fluoro-5-[(4-oxo-3,4,5,6,7,8-hexahydrophthalazin-1-yl)methyl]benzamide]
